Series [1] in a line: Metabolic stability in human liver microsomes. To be noted: for half-life at 15 µg/mL: pH 7.4, Table 3; for half-life: pH 7.4, Table 5. Format: in vitro ADME. On the procedure:
The prodrugs were incubated with the human liver microsomes at 37° C. as an indication of the susceptibility of prodrugs to undergo bioconversion in the liver. The reactions were initiated by adding 1.5 μL of the prodrug stock solution (10 mg/mL in DMSO) to a preheated solution consisting of 748.5 μL potassium phosphate buffer solution (20 mM, pH 7.4, ionic strength 0.5), 200 μL NADPH, and 50 μLhuman liver microsomes (mixed gender, 0.5 ml at 20 mg/mL). The solutions were stirred at a constant temperature of 37° C. At appropriate intervals, 50 μLof samples were mixed with 100 μL of ice-cold MeOH. After immediate mixing and centrifugation (5 min at 14.000 rpm), the resulting clear supernatant was analyzed for the remaining prodrug by HPLC.
For orientation: Microsomes from liver hold many membrane-bound enzymes, among them those of drug oxidation.

Series [2] is described as follows: Aqueous solubility of CBD and solubility in various solvents. The class given is physicochemical. The method, then: CBD was dissolved in 50 mM phosphate buffer, pH 6.8, containing 10% (v/v) EtOH. Suspensions were centrifuged for 3 min at 14000 rpm. Solubilities are between 15-110 μg/ml. Some floating particles can be seen which, once dissolved, cause variation in the result. When the suspension was filtered (Millex 0.45 μm) no detectable (HPLC) CBD was found.
CBD solubility in various solvents when ca. 1 mg was dissolved in ca. 1 ml. Solutions/suspensions were centrifuged, and 100 μl of the sample was mixed with 100 μl MeOH:H2O (1:1).
The solubility of CBD in various solvents is shown below: • 1. 50% EtOH:50% H2O=ca. 1 mg/ml • 2. 15% HP-beta-CD:85% H2O=0.7 mg/ml • 3. 5% HP-beta-CD:0.5% HPMC:84.5% H2O=0.16 mg/ml • 4. 4% BSA:95% H2O=0.07 mg/ml • 5. 90% Propylene glycol:10% H2O=0.87 mg/ml • 6. 30% Solutol® HS 15:10% EtOH:60% H2O=0.96 mg/ml

In series [3] the test system is reconstructed human epidermis cells. In words: In vitro skin permeability (SkinEthic Episkin reconstructed human epidermis). Format: in vitro ADME. To be noted: for Skin permeation, applied compound (parent or intact prodrug): receiver 15% HP-beta-CD pH 7.4. The method, then: The in vitro permeability studies were carried out in commercial reconstructed human epidermis cells (SkinEthic™ Episkin Reconstructed human epidermis). This model is composed of TR146 cells (derived from a squamous cell carcinoma of the buccal mucosa) cultivated on an inert polycarbonate filter at the air-liquid interface in a chemically defined medium. This model forms an epithelial tissue devoid of stratum corneum, resembling histologically to the mucosa of the oral cavity.
Upon receiving the cells, each insert (0.5 cm^2 or 0.33 cm^2) was placed in a plate containing 800 μL fresh medium at room temperature. The culture dishes were placed in the incubator at 37° C., 5% CO2, and saturated humidity overnight. Next day, the inserts were placed in a plate containing 800 μL 15% HP-β-cyclodextrin in H2O. CBD and CBG, and prodrugs CBDp27 and CBGp1 were dissolved in two different vehicles, 1:1:1 prop gly:water:EtOH/6% Brij 98, and 100% mineral oil. The receiver solution was 15% HP-beta-CD in phosphate buffer (pH 7.4). 400 μL the prodrugs were applied as suspensions (ca. 2 mg/ml). The plates were stirred gently at 37° C. At appropriate intervals, the receptor compartment was sampled (100 μL) and replenished with fresh […] solution each time. The samples were mixed with 100 μL of MeOH, and analyzed for drug (both the parent drug and prodrug) by HPLC-MS.
The flux-values for the rate of delivery of drugs were determined from Fick's law of diffusion.

Series [4] can be described thus: Stability in aqueous solutions (sodium phosphate buffer, 37° C.). Format: physicochemical. To be noted: aqueous buffer pH 6.8, 37° C., single determinations. The method, then: […] The solutions of prodrugs were prepared by adding 10 μL of stock solution (10 mg/mL in DMSO) to the preheated buffer. The solutions were stirred at a constant temperature of 37° C. At appropriate intervals, 75 μL of samples were mixed with 75 μL of MeOH and analyzed for remaining prodrug by HPLC.
The pseudo-first-order rate constants (kobs) and half-lives (t1/2) for the degradation of the prodrugs were determined from the linear slopes of the plots by taking the logarithm of the remaining prodrug over time. Equations: kobs=slope/−2.303 and t1/2=ln2/kobs.

A short description of series [5]: Stability in 80% human plasma (serum). The settings on record: 80% human serum (pH 7.4) at 37° C. Format: in vitro ADME. The method, then: The rates of the degradation of the prodrugs were determined in 80% human serum (pH 7.4) at 37° C. as an indication of the susceptibility of prodrugs to undergo bioconversion after reaching the circulation. The reactions were initiated by adding the first 10 μL of the prodrug stock solution (10 mg/mL in DMSO) to 200 μL preheated sodium phosphate buffer solution (50 mM, pH 7.4, ionic strength 0.5), and then adding 800 μL preheated human serum. The solutions were stirred at a constant temperature of 37° C. At appropriate intervals, 50 μL of samples were mixed with 150 μL of ice-cold MeOH. After immediate mixing and centrifugation (5 min at 14.000 rpm), the resulting clear supernatant was analyzed for the remaining prodrug by HPLC.

Series [6] relates to reconstructed human oral buccal epithelium cells (SkinEthic HOE, TR146 cells). In words: In vitro buccal permeability (SkinEthic human oral epithelium). The class given is in vitro ADME. The settings on record: Table 4. The method, then: The in vitro permeability studies were carried out in commercial reconstructed human oral buccal epithelium cells (SkinEthic™ human oral epithelium). The SkinEthic™ HOE model is composed of TR146 cells (derived from a squamous cell carcinoma of the buccal mucosa) cultivated on an inert polycarbonate filter at the air-liquid interface in a chemically defined medium. This model forms an epithelial tissue devoid of stratum corneum, resembling histologically to the mucosa of the oral cavity.
Upon receiving the cells, each insert (0.5 cm^2 or 0.33 cm^2) was placed in a plate containing 800 μL fresh medium at room temperature. The culture dishes were placed in the incubator at 37° C., 5% CO2, and saturated humidity overnight. Next day, the inserts were placed in a plate containing 800 μL 15% HP-β-cyclodextrin in H2O. The prodrugs were dissolved in 100% EtOH (5% (V/V) final conc.), and then sodium phosphate buffer solution (50 mM, pH 6.8, isotonic, 37° C.) was added (95% (V/V) final conc.). 400 μL of the prodrugs were applied as suspensions (ca. 2 mg/ml). The plates were stirred gently at 37° C. At appropriate intervals, the receptor compartment was sampled (100 μL) and replenished with fresh […] solution each time. The samples were mixed with 100 μL of MeOH, and analyzed for drug (both the parent cannabinoid and the prodrug) by HPLC-MS.
The buccal flux-values for the rate of delivery of drugs were determined from Fick's law of diffusion.

[7] abbreviates: both sexes, human, microsomes, 37° C., NADPH, read-out: Half-life in human liver microsomes (single determinations) (converted).
Where [8] appears, read: both sexes, human, microsomes, average of determinations, read-out: Half-life in human liver microsomes (avg.) (converted).
[9] abbreviates: vehicle solvent mix (1:1:1 prop gly:water:EtOH/6% Brij 98).

Structures are written as SMILES. In brackets after ≈: the same amount, converted by molar mass. Where two headings read alike, the source gives them in different places. Some results are limits rather than exact numbers.

As usually defined, the half-life is the time in which the quantity being followed falls by half. By solubility is commonly meant the dissolved amount per volume that the medium holds.

For the molecule `C=C(C)[C@@H]1CCC(C)=C[C@H]1c1c(O)cc(CCCCC)cc1O` [CBD, Cannabidiol], the “Half-life in human liver microsomes (single determinations)” value in series [1] (Table 3, 37° C., NADPH) amounted to 23.4 min. The half-life at 15 µg/mL in series [1] (setting [7]) was 36 min; in series [1] (setting [8]), 30 min. Also, the microsomal CLint at 15 µg/mL in series [1] (both sexes, human, microsomes, pH 7.4, Table 3, CLint = k/P, protein 1 mg, read-out: Intrinsic clearance CLint) was 23.1 µL/min/mg. The “Solubility after filtration (HPLC)” value in series [2] (50 mM phosphate buffer, pH 6.8, 10% EtOH, suspension filtered (Millex 0.45 μm)) is listed as “no detectable”. The solubility was 700 µg/mL (≈ 2230 µM) in series [2] (15% HP-beta-CD:85% H2O, ca. 1 mg in ca. 1 ml); 70 µg/mL (≈ 223 µM) in series [2] (aqueous with cosolvent or surfactant or cyclodextrin, thermodynamic from solid, 4% BSA:95% H2O, ca. 1 mg in ca. 1 ml, read-out: Solubility); 160 µg/mL (≈ 509 µM) in series [2] (aqueous with cosolvent or surfactant or cyclodextrin, thermodynamic from solid, 5% HP-beta-CD:0.5% HPMC:84.5% H2O, ca. 1 mg in ca. 1 ml, read-out: Solubility); 960 µg/mL (≈ 3050 µM) in series [2] (aqueous with cosolvent or surfactant or cyclodextrin, thermodynamic from solid, 30% Solutol HS 15:10% EtOH:60% H2O, ca. 1 mg in ca. 1 ml, read-out: Solubility); about 1000 µg/mL (≈ 3180 µM) in series [2] (aqueous with cosolvent or surfactant or cyclodextrin, thermodynamic from solid, 50% EtOH:50% H2O, ca. 1 mg in ca. 1 ml, read-out: Solubility); 870 µg/mL (≈ 2770 µM) in series [2] (organic solvent or mixture, thermodynamic from solid, 90% Propylene glycol:10% H2O, ca. 1 mg in ca. 1 ml, read-out: Solubility). Besides, the solubility in series [2] (phosphate buffer with 10% (v/v) ethanol, aqueous with cosolvent or surfactant or cyclodextrin, thermodynamic from solid, 50 mM phosphate buffer, pH 6.8, 10% (v/v) EtOH, suspension centrifuged, read-out: Solubility) fell in the range of 15 to 110 µg/mL (≈ 47.7 to 350 µM). The “Skin permeation, applied compound (parent or intact prodrug)” value worked out at 0.0233 ± 0.007 nmol/cm^2/h in series [3] (vehicle mineral oil) and 1.16 ± 0.12 nmol/cm^2/h in series [3] (setting [9]).

`CCCCCc1cc(O)c(C/C=C(\C)CCC=C(C)C)c(OC(=O)C2CCNC2)c1` (stereo not drawn) [CBGp1, (E)-2-(3,7-dimethylocta-2,6-dien-1-yl)-3-hydroxy-5-pentylphenyl pyrrolidine-3-carboxylate]: the Half-life in aqueous solution in series [4] (Table 5) was determined as 32.4 min. The half-life is 30 min in series [4] (buffer, pH 6.8, Table 5, read-out: Half-life in aqueous solution (converted)); 42 min in series [5] (human, serum, pH 7.4, Table 5); 38.4 min in series [1] (setting [7]); 39.6 min in series [1] (setting [8]). Besides, the Half-life in serum in series [5] (Table 5) amounted to 44.4 min. Also, the Half-life in human liver microsomes (single determinations) in series [1] (Table 5, 37° C., NADPH) stood at 40.2 min. The “Species making up the buccal flux / formation of parent cannabinoid” value in series [6] (remark in flux cell) is “(CBG + prodrug)”. In addition, the “Flux (buccal)” value in series [6] (suspension ca. 2 mg/ml in 5% EtOH/phosphate buffer pH 6.8, 37° C., receiver 15% HP-β-cyclodextrin) is 111.79 ± 2.59 nmol/cm^2/h. Further, the “Skin permeation of prodrug relative to parent cannabinoid” value in series [3] (mineral oil) is recorded as about 13 fold; in series [3] (solvent mix), over 300 fold. The “Skin permeation, applied compound (parent or intact prodrug)” value in series [3] (vehicle mineral oil) is listed as 0.54 ± 0.19 nmol/cm^2/h; in series [3] (setting [9]), 148.0 ± 40.9 nmol/cm^2/h.

The values are drawn from patent publication US20220339150A1, “ENDOCANNABINOID SYSTEM-TARGETING PRODRUGS AND THERAPEUTIC USES THEREOF” (priority 2021, published 2022).
